Data: patent US11865158B2, “Process and composition matter of nanoparticle formulation for systemic treatment of sepsis” (PURDUE RESEARCH FOUNDATION, priority 2019, dated 2024)
Where two headings read alike, the source gives them in different places.

Key:
[1] = system: Escherichia coli ATCC 2452; assay: Minimum inhibitory concentration, broth microdilution; format: cell-based
From the text: (§1) Bacterial cell lines and reagents. Escherichia coli ATCC 2452 (NDM-1, isolated in Pakistan) was New Delhi metallo-beta-lactamase (NDM-1) positive, blaNDM positive by PCR, and carbepenem-resistant (Imipenem and Ertapenem). Escherichia coli ATCC 2469 (1001728, isolated from human urine) was New Delhi metallo-beta-lactamase (NDM-1) positive, blaKPC negative and blaNDM positive by PCR, and Carbepenem-resistant (Imipenem and Ertapenem). Klebsiella pneumoniae (NR-41920, isolated in 2008 from human blood culture in Boston, Massachusetts, USA) was Carbapenem-resistant strain, blaKPC-3 positive by PCR, and resistant to amikacin, ampicillin/sulbactam, cefazolin, cefepime, ceftazidime, ceftriaxone, cefuroxime, ciprofloxacin, gentamicin, meropenem, piperacillin/tazobactam, tobramicin and trimethoprim/sulfamethoxazole. Pseudomonas aeruginosa (NR-50573, isolated in early 1970s from the blood of a burn patient at Mercy Hospital in Pittsburgh, Pennsylvania, USA) was resistant to rifampicin and susceptible to meropenem, ofloxacin, ceftazidime, amikacin, and tobramycin. 0.5 McFarland standard was purchased from ThermoFisher scientific (Waltham, MA, USA). Mueller-Hinton broth and tryptone soy agar plates were purchased from Becton, Dickinson and company (Franklin Lakes, New Jersey, USA).
(§2) Antimicrobial activities The minimum inhibitory concentrations (MICs) of the control antibiotics (gentamicin and imipenem), PMB, D-TZP and TZP against Escherichia coli, Klebsiella pneumoniae and Pseudomonas aeruginosa strains were determined by the broth microdilution method, according to guidelines outlined by the Clinical and Laboratory Standards Institute (CLSI)^18. The bacterial stains were grown aerobically overnight on tryptone soy agar plates at 37° C. Afterwards, a bacterial solution equivalent to 0.5 McFarland standard was prepared and diluted in cation-adjusted Mueller-Hinton broth (CAMHB) to achieve a bacterial concentration of ˜5×10^5 CFU/mL. The treatments were added in the first row of the 96-well plates and serially diluted with media containing bacteria. Plates were incubated aerobically at 37° C. for 16-18 hours.

[2] = system: Escherichia coli ATCC 2469; assay: as above; format: cell-based
From the text: as §1, §2

[3] = system: Klebsiella pneumoniae NR-41920; assay: as above; format: cell-based
From the text: as §1, §2

[4] = system: Pseudomonas aeruginosa NR-50573; assay: as above; format: cell-based
From the text: as §1, §2

[5] = system: Klebsiella pneumoniae NR-41920; assay: Effect on bacterial membrane (SEM); format: cell-based; details: 5×MIC for 1.5 h
Protocol: Effect on bacterial membrane. […] The bacteria were collected by centrifugation at 5000 rcf for 10 min, fixed in 2.5% glutaraldehyde solution at 4° C., and placed on poly-1-lysine coated coverslip. After 1 h, the coverslip was rinsed three times with water (5 min each) and incubated in 2% Osmium tetroxide for 30 min. SEM imaging was performed as described in previous section.

J774a.1 macrophages = assay: Effect on cell membrane, SEM; format: cell-based; details: eq. to 150 μg/mL PMB, 12 h
Protocol: Effect of PMB and D-TZP on cell membrane. The effect of D-TZP on J774A.1 cell membrane was monitored by two methods (scanning electron microscopy and confocal microscopy). For scanning electron microscopy, J774A.1 macrophages were plated in a 6-well plate at a density of 3×10^5 cells per well with 3 mL of complete medium. After overnight incubation at 37° C. in a 5% CO2 atmosphere, the cells were treated with either free PMB or D-TZP at a concentration equivalent to 150 μg/mL PMB for 12 h. The cells were centrifuged at 233 relative centrifugal force (rcf) for 3 min. The medium was removed, and 2.5% glutaraldehyde solution was added for fixation overnight at 4° C. The cells were then rinsed three times with water (5 min each) and incubated in 2% Osmium tetroxide for 1 h. After rinsing another three times with water (5 min each), the cells were dehydrated with a series of ethanol gradients (50%, 75%, 95%) for 10 minutes at each step. The dehydrated cells were rinsed with 100% ethanol three times for 10 minutes each time, stored in a 1:1 mixture of HMDS and ethanol in 1:1 for 30 min, and rinsed with 100% HMDS for 30 min twice. After overnight drying, the cells were placed on a carbon tape attached to an aluminum stud and coated with platinum for SEM analysis. The morphology of treated J774a.1 cells then was observed by a FEI NOVA NanoSEM scanning electron microscope (SEM). […]

C57BL/6 male mice = details: known value, cited from earlier work

With polymyxin B [PMB] the “Minimum inhibitory concentration (MIC)” value [1] was 0.5 µg/mL, the “Minimum inhibitory concentration (MIC)” value [2] was 0.125 µg/mL and the “Minimum inhibitory concentration (MIC)” value [3] was 0.5 µg/mL. The “Minimum inhibitory concentration (MIC)” value [4] was 0.5 µg/mL, the “bacterial membrane morphology by SEM” value [5] was “induced deformation of bacterial membrane” and the “cell membrane morphology by SEM” value (J774a.1 macrophages) was “deformed membrane morphology”. For the same substance, the LD50 (C57BL/6 male mice; IP) was 20 mg/kg and the LD50 (C57BL/6 male mice; IV) was 5 mg/kg.
